Series [1] relates to human fibroblasts. Put plainly: MTT cytotoxicity and proliferation assay, limit concentrations of NAC and turmeric. The format is cell-based. The procedure:
The proliferation assay was carried out using the MTT colorimetric assay (Roche 11465007001). MTT is a yellow tetrazolium salt which forms formazan crystals in active cells. The formazan crystals are solubilized and the resulting color is quantified by means of spectrophotometry at 550 nm. […] The cells were maintained at 37° C. in an incubation stove. The following day, the treatments of NAC and Turmeric were added to the cell culture using a volume of 200 μL per well. The cell culture was left to incubate for 24, 48 and 72 hours. After each incubation time, 20 μL of MTT (a final concentration of 0.5 mg/mL) were added to each well. The plate was maintained for 4 hours in the incubation stove in order to allow the formation of formazan crystals. Subsequently, 100 μL of solubilizer was added to each well and the plate was left in the incubation stove until the following day.

The subject of series [2] is reactive oxygen metabolites (ROMs) in human fibroblasts. The series is described as follows: Intracellular ROM quantification with 2',7'-dichlorofluorescein diacetate probe in oxidized fibroblasts. It is filed as cell-based. Conditions: 1 mM H2O2; for F.U. (fluorescence units) / % decrease of ROS: 1% LBG, 5 mM NAC, 5 μM Turmeric; for F.U. (fluorescence units): fluorescence at 538 nm, 20 minutes after the start of the oxidation; for % decrease of ROS: with respect to the oxidized control.
Description: To quantify the ROM-decreasing or antioxidant capacity of LBG, NAC and turmeric, the production of the ROMs generated upon oxidizing a culture of fibroblasts with a high concentration of hydrogen peroxide was measured.
The intracellular ROMs were quantified by means of the labeling thereof with the fluorescent probe 2′,7′-dichlorofluorescein diacetate (Molecular Probes D399). This probe is capable of emitting fluorescence at 538 nm when it is oxidized with reactive oxygen metabolites. The cell oxidation was carried out with 1 mM hydrogen peroxide.
The day before the assay, the fibroblasts were seeded in a 96-well plate at a density of 11500 cells per well. All the assays were performed in triplicate.
The treatments were prepared on the day of the experiment and the hydrogen peroxide was added just before the assay.
A solution of locust bean gum of 1% in distilled water was prepared and heated above 100° C. until completing dissolution of the gum.
The solution was then centrifuged for 20 minutes at 4000 rpm to remove the impurities from the mixture. The solution of the locust bean gum was lyophilized. The lyophilisate was dissolved in cell growth medium (DMEM+10% FBS) at a concentration of 1%.
Before adding the treatments and the hydrogen peroxide, the cells were labeled with the fluorescent probe at a concentration of 50 μM for 30 minutes in darkness.
The NAC and Turmeric treatments and the hydrogen peroxide were prepared just before starting the assay. To prepare the turmeric stock, it is necessary to know the purity of the Turmeric batch available and readjust the calculation to add the necessary concentration.
After labeling the cells, the antioxidant treatments and the hydrogen peroxide were added.
The fluorescence emitted at 538 nm by the probe was collected 20 minutes after the start of the oxidation.
However, in this case the decrease in intracellular ROM levels was taken as a reference with respect to the oxidized control.

pIC50: −log10 of the molar value.

As to `CC(=O)N[C@@H](CS)C(=O)O` [NAC, N-acetyl cysteine, reference compound], in series [1] (NAC studied from 0.5 mM to 20 mM, 72 hours), the “IC50 (concentration causing a 50% cell decrease with respect to the control)” value was “none of the concentrations studied reached IC50”. The “proliferative rate in the fibroblasts” value in series [1] (concentrations of 1 and 5 mM) was “improvement of the proliferative rate”. For the same molecule, in series [1] (concentrations of 10 and 20 mM), the “cell proliferation with respect to the control” value is listed as “progressively reduced cell proliferation”. Besides, the “maximum limit of concentration” value in series [1] (toxicity limit from MTT assay) is recorded as 10 mM. In series [2], the “intracellular ROM levels” value is recorded as “significant decrease of the intracellular ROM levels”, the “F.U. (fluorescence units)” value is recorded as 1.82 and the “% decrease of ROS” value was determined as 85%.

In the case of `COc1cc(/C=C/C(=O)/C=C(O)/C=C/c2ccc(O)c(OC)c2)ccc1O` [Turmeric, curcumin], in series [1] (Homo sapiens, Fibroblast, 72 h, read-out: IC50 (concentration causing a 50% cell decrease with respect to the control)), the pIC50 is 5.12. Moreover, the toxicity result in series [1] (concentration of 10 μM) was “exceeds the limit at 72 hours”. Also, the toxicity result in series [1] (concentrations of 1 and 5 μM) is “no toxic effects were observed”. Further, the toxicity entry in series [1] (concentrations of 20 and 50 μM) is recorded as “toxicity from the first 24 hours, exceeding the IC50 limit”. In series [1] (toxicity limit from MTT assay), the “maximum limit of use in the mixture” value is 7.5 µM. Besides, in series [2], the “intracellular ROM levels” value is “significant decrease of the intracellular ROM levels”, the “F.U. (fluorescence units)” value is on record as 2.31 and the “% decrease of ROS” value stood at 81%.

These data come from patent publication US10231992B2, “Antioxidant composition” (priority 2010, dated 2019).
